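These data come from cells grown in 96-well plates and exposed to compound for 48 hours at five concentrations. At the TGI there is no net growth.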
Legend:
Assay in all cases: NCI anticancer screen, dose series, 48 h
786-0 renal = tested on: 786-0 renal
A498 renal = tested on: A498 renal
A549 NSCLC = tested on: A549 NSCLC
ACHN renal = tested on: ACHN renal
BT-549 breast = tested on: BT-549 breast
CAKI-1 renal = tested on: CAKI-1 renal
COLO 205 colon = tested on: COLO 205 colon
DU-145 prostate = tested on: DU-145 prostate
EKVX NSCLC = tested on: EKVX NSCLC
HCC-2998 colon = tested on: HCC-2998 colon
HCT-116 colon = tested on: HCT-116 colon
HCT-15 colon = tested on: HCT-15 colon
HL-60(TB) leukemia = tested on: HL-60(TB) leukemia
HOP-62 NSCLC = tested on: HOP-62 NSCLC
HOP-92 NSCLC = tested on: HOP-92 NSCLC
HS 578T breast = tested on: HS 578T breast
HT29 colon = tested on: HT29 colon
IGROV1 ovarian = tested on: IGROV1 ovarian
K-562 leukemia = tested on: K-562 leukemia
KM12 colon = tested on: KM12 colon
LOX IMVI melanoma = tested on: LOX IMVI melanoma
M14 melanoma = tested on: M14 melanoma
MALME-3M melanoma = tested on: MALME-3M melanoma
MCF7 breast = tested on: MCF7 breast
MDA-MB-231 breast = tested on: MDA-MB-231 breast
MDA-MB-435 = tested on: MDA-MB-435
MDA-N = tested on: MDA-N
MOLT-4 leukemia = tested on: MOLT-4 leukemia
NCI-H226 lung = tested on: NCI-H226 lung
NCI-H460 lung = tested on: NCI-H460 lung
NCI-H522 lung = tested on: NCI-H522 lung
NCI/ADR-RES ovarian = tested on: NCI/ADR-RES ovarian
OVCAR-3 ovarian = tested on: OVCAR-3 ovarian
OVCAR-4 ovarian = tested on: OVCAR-4 ovarian
OVCAR-5 ovarian = tested on: OVCAR-5 ovarian
OVCAR-8 ovarian = tested on: OVCAR-8 ovarian
PC-3 prostate = tested on: PC-3 prostate
RXF 393 renal = tested on: RXF 393 renal
SF-268 CNS = tested on: SF-268 CNS
SF-295 CNS = tested on: SF-295 CNS
SF-539 CNS = tested on: SF-539 CNS
SK-MEL-2 melanoma = tested on: SK-MEL-2 melanoma
SK-MEL-28 melanoma = tested on: SK-MEL-28 melanoma
SK-MEL-5 melanoma = tested on: SK-MEL-5 melanoma
SK-OV-3 ovarian = tested on: SK-OV-3 ovarian
SN12C renal = tested on: SN12C renal
SNB-19 CNS = tested on: SNB-19 CNS
SR leukemia = tested on: SR leukemia
SW-620 colon = tested on: SW-620 colon
T-47D breast = tested on: T-47D breast
TK-10 renal = tested on: TK-10 renal
U251 CNS = tested on: U251 CNS
UACC-257 melanoma = tested on: UACC-257 melanoma
UACC-62 melanoma = tested on: UACC-62 melanoma
CCRF-CEM leukemia = tested on: CCRF-CEM leukemia
NCI-H23 lung = tested on: NCI-H23 lung
RPMI-8226 leukemia = tested on: RPMI-8226 leukemia
SNB-75 CNS = tested on: SNB-75 CNS
UO-31 renal = tested on: UO-31 renal

## COc1ccc(OC)c(C2CCc3c(cnc4nc(N)nc(N)c34)C2)c1 (stereo not given)
786-0 renal
  TGI: 18.3 µM
A498 renal
  TGI: 27.4 µM
A549 NSCLC
  TGI: 15 µM
ACHN renal
  TGI: 17.2 µM
BT-549 breast
  TGI: 40.7 µM
CAKI-1 renal
  TGI: 29.1 µM
COLO 205 colon
  TGI: 47.3 µM
DU-145 prostate
  TGI: 28.4 µM
EKVX NSCLC
  TGI: 24.2 µM
HCC-2998 colon
  TGI: 44.6 µM
HCT-116 colon
  TGI: 14.2 µM
HCT-15 colon
  TGI: 28.4 µM
HL-60(TB) leukemia
  TGI: 25.9 µM
HOP-62 NSCLC
  TGI: 26.8 µM
HOP-92 NSCLC
  TGI: 26.3 µM
HS 578T breast
  TGI: 53 µM
HT29 colon
  TGI: 16.2 µM
IGROV1 ovarian
  TGI: 17.5 µM
K-562 leukemia
  TGI: 16.1 µM
KM12 colon
  TGI: 26.4 µM
LOX IMVI melanoma
  TGI: 15.5 µM
M14 melanoma
  TGI: 17.3 µM
MALME-3M melanoma
  TGI: 20.9 µM
MCF7 breast
  TGI: 24.3 µM
MDA-MB-231 breast
  TGI: 29.2 µM
MDA-MB-435
  TGI: 17.1 µM
MDA-N
  TGI: 17.2 µM
MOLT-4 leukemia
  TGI: 22 µM
NCI-H226 lung
  TGI: 54.8 µM
NCI-H460 lung
  TGI: 21.6 µM
NCI-H522 lung
  TGI: 21.7 µM
NCI/ADR-RES ovarian
  TGI: > 100 µM
OVCAR-3 ovarian
  TGI: 31.3 µM
OVCAR-4 ovarian
  TGI: 23.5 µM
OVCAR-5 ovarian
  TGI: 22.2 µM
OVCAR-8 ovarian
  TGI: 21.6 µM
PC-3 prostate
  TGI: 27.5 µM
RXF 393 renal
  TGI: 32.1 µM
SF-268 CNS
  TGI: 18.9 µM
SF-295 CNS
  TGI: 23.3 µM
SF-539 CNS
  TGI: 89.1 µM
SK-MEL-2 melanoma
  TGI: 31.8 µM
SK-MEL-28 melanoma
  TGI: 29.4 µM
SK-MEL-5 melanoma
  TGI: 33.4 µM
SK-OV-3 ovarian
  TGI: 31.2 µM
SN12C renal
  TGI: 22 µM
SNB-19 CNS
  TGI: 21.5 µM
SR leukemia
  TGI: 20.4 µM
SW-620 colon
  TGI: 37.2 µM
T-47D breast
  TGI: 39.8 µM
TK-10 renal
  TGI: 28.7 µM
U251 CNS
  TGI: 18.7 µM
UACC-257 melanoma
  TGI: 23.4 µM
UACC-62 melanoma
  TGI: 12.3 µM

## CC(=O)OCC1OC(n2c3c(cc(C#N)c2=S)CCC3)C(OC(C)=O)C(OC(C)=O)C1OC(C)=O (stereo not given)
786-0 renal
  TGI: > 100 µM
A498 renal
  TGI: > 100 µM
A549 NSCLC
  TGI: > 100 µM
ACHN renal
  TGI: > 100 µM
BT-549 breast
  TGI: > 100 µM
CAKI-1 renal
  TGI: > 100 µM
CCRF-CEM leukemia
  TGI: > 100 µM
COLO 205 colon
  TGI: > 100 µM
DU-145 prostate
  TGI: > 100 µM
HCC-2998 colon
  TGI: > 100 µM
HCT-116 colon
  TGI: > 100 µM
HCT-15 colon
  TGI: > 100 µM
HL-60(TB) leukemia
  TGI: > 100 µM
HOP-62 NSCLC
  TGI: > 100 µM
HOP-92 NSCLC
  TGI: > 100 µM
HS 578T breast
  TGI: > 100 µM
HT29 colon
  TGI: > 100 µM
IGROV1 ovarian
  TGI: > 100 µM
K-562 leukemia
  TGI: > 100 µM
KM12 colon
  TGI: > 100 µM
LOX IMVI melanoma
  TGI: > 100 µM
M14 melanoma
  TGI: > 100 µM
MALME-3M melanoma
  TGI: > 100 µM
MCF7 breast
  TGI: > 100 µM
MDA-MB-231 breast
  TGI: > 100 µM
MDA-MB-435
  TGI: > 100 µM
MDA-N
  TGI: > 100 µM
MOLT-4 leukemia
  TGI: > 100 µM
NCI-H226 lung
  TGI: > 100 µM
NCI-H23 lung
  TGI: > 100 µM
NCI-H460 lung
  TGI: > 100 µM
NCI-H522 lung
  TGI: > 100 µM
NCI/ADR-RES ovarian
  TGI: > 100 µM
OVCAR-4 ovarian
  TGI: > 100 µM
OVCAR-5 ovarian
  TGI: > 100 µM
OVCAR-8 ovarian
  TGI: > 100 µM
PC-3 prostate
  TGI: > 100 µM
RPMI-8226 leukemia
  TGI: > 100 µM
RXF 393 renal
  TGI: > 100 µM
SF-268 CNS
  TGI: > 100 µM
SF-295 CNS
  TGI: > 100 µM
SF-539 CNS
  TGI: > 100 µM
SK-MEL-2 melanoma
  TGI: > 100 µM
SK-MEL-28 melanoma
  TGI: > 100 µM
SK-MEL-5 melanoma
  TGI: > 100 µM
SN12C renal
  TGI: > 100 µM
SNB-19 CNS
  TGI: > 100 µM
SNB-75 CNS
  TGI: > 100 µM
SR leukemia
  TGI: > 100 µM
SW-620 colon
  TGI: > 100 µM
T-47D breast
  TGI: > 100 µM
TK-10 renal
  TGI: > 100 µM
U251 CNS
  TGI: > 100 µM
UACC-257 melanoma
  TGI: > 100 µM
UACC-62 melanoma
  TGI: > 100 µM
UO-31 renal
  TGI: > 100 µM

Source: PubChem BioAssay (NCI)
